Test results from US12195424B2, “Antibiotic compounds” (The General Hospital Corporation, priority 2017, dated 2025).
Converted amounts (≈) assume the structure as drawn. Where two headings read alike, the source gives them in different places.

Columns and labels:
[1] = tested on: S. aureus strain MW2; assay: Minimal inhibitory concentration (MIC) assay; assay type: cell-based; conditions: for MIC: growing MRSA MW2 cells; for fold decrease in antimicrobial activity (fold higher MIC) vs. parent compound CD437: relative to CD437; for antimicrobial activity: S. aureus MW2, in words
From the text: Bacterial strains, growth conditions and persister isolation. Methicillin-resistant S. aureus (MRSA) strain MW2 BAA-1707, the VanA-type vancomycin-resistant S. aureus strain VRS1, 11 clinical S. aureus isolates 8 clinical Enterococcus faecium isolates (including VanB-type VRE isolates, C68 and WB312, and a VanA-type VRE isolate WC196), Klebsiella pneumoniae WGLW2 (BEI Resources, Manassas, VA, USA), Acinetobacter baumannii ATCC 17978, Pseudomonas aeruginosa PA14, and Enterobacter aerogenes ATCC 13048 were used to test antimicrobial activity. S. aureus and E. faecium strains were grown in tryptic soy broth (TSB) (BD, Franklin Lakes, NJ, USA) or brain-heart infusion (BHI) broth (BD, Franklin Lakes, NJ, USA), respectively at 37° C. K. pneumoniae, A. baumannii, P aeruginosa, and E. aerogenes were grown in Luria Bertani (LB) broth (BD, Franklin Lakes, NJ, USA).
(§1) Minimal inhibitory concentration (MIC) assay. The MICs of antibiotics were determined by the standard micro-dilution method recommended by the Clinical and Laboratory Standards Institute. The assay was conducted in triplicate.

[2] = tested on: MRSA MW2 persisters; assay: Persister killing assay; assay type: cell-based, S. aureus; conditions: Staphylococcus aureus; MRSA MW2 persisters; read-out: MIC against MRSA persisters
Procedure: Persister killing assay. […] Persistency of stationary-phase S. aureus VRS1 was evaluated by treating with 100×MIC daptomycin and 100×MIC linezolid, because the strain is resistant to vancomycin, gentamicin, ciprofloxacin, and rifampicin. We prepared persister cells of the 13 S. aureus strains by growing cultures overnight to stationary phase at 37° C. at 225 rpm. The overnight cultures were washed three times with PBS and diluted to ˜5×10^7 ? CFU/ml with the same buffer. 2 ml of the persister suspension containing appropriate concentrations of antibiotics was added to the wells of a 96-well assay block (Corning Costar 3960) and incubated at 37° C., with shaking at 225 rpm. At specific times, 400 μl samples were removed and washed once with PBS to remove the antibiotic. The samples were serially diluted 10^5 fold with PBS and spot-plated onto TSA plates. After incubating the plates overnight (˜18 h) at 37° C., the colonies were counted to enumerate the number of cells. These experiments were conducted in triplicate.

[3] = tested on: human erythrocytes; assay: Human blood hemolysis; assay type: cell-based; conditions: compared with CD437, in words
Procedure: Human blood hemolysis. Hemolytic activity of retinoids on human erythrocytes was evaluated using a previously described method with modifications. 10% human erythrocytes were purchased from Rockland Immunochemicals (Limerick, PA, USA). The erythrocytes were diluted to 4% with PBS, and 100 μl was added to 100 μl of two-fold serial dilutions of compounds in PBS, 0.2% DMSO (negative control), or 2% Triton-X 100 (positive control) in a 96-well plate. The plate was incubated at 37° C. for 1 h and then centrifuged at 500×g for 5 min. 100 μl of the supernatant was transferred to a fresh 96-well plate and absorbance of supernatants was measured at 540 nm. Percent hemolysis was calculated using the following equation: (A540 nm of compound treated sample−A540 nm of 0.1% DMSO treated sample)/(A540 nm of 1% Triton X-100 treated sample−A540 nm of 0.1% DMSO treated sample)×100. HC50 (concentration of compound causing 50% hemolysis) was determined using SigmaPlot 10.0 (Systat Software Inc., San Jose, CA, USA).

[4] = tested on: rat primary hepatocytes; assay: Hepatotoxicity in primary hepatocytes; assay type: cell-based; conditions: 24 h, compared with CD437, in words
Procedure: Cytotoxicity. Cryopreserved rat and human primary hepatocytes were purchased from the Cell Resource Core at Massachusetts General Hospital (Boston, MA, USA). The hepatocytes were cultured in a collagen sandwiched configuration in 24-well plates, as described previously. Briefly, 4×10^5 live cells were seeded in 24-well plates coated with rat tail collagen type I. Plates were incubated in a humidified 5% CO2 incubator at 37° C. for 4 h to allow cells to attach to the collagen gel. The cells were washed and then cultured in 0.5 ml standard hepatocyte culture medium consisting of pre-warmed Dulbecco's modified Eagle's medium (DMEM) media supplemented with 10% FBS, 0.5 U/ml insulin, 14 ng/ml glucagon, 20 ng/ml EGF, 7.5 μg/ml hydrocortisone and 200 U/ml penicillin-streptomycin. The cell cultures were incubated in a humidified 5% CO2 incubator at 37° C. At 24 h after seeding the cells, a top layer of collagen gel was deposited on the hepatocytes attached to the bottom collagen layer and incubated for additional 24 h. For cytotoxicity tests, HepG2, RPTEC, and NHEK were cultured at 70-80% confluence in tissue culture treated 96-well plates in a volume of 100 μl/well corresponding culture media. […] WST-1 reduction was measured at 450 nm. The percent fluorescence relative to that of the no-treatment control was calculated. […]

[5] = tested on: Cutibacterium (Propionibacterium) acnes; assay: Growth inhibition / MIC against P. acnes; assay type: cell-based; conditions: in words (FIG. 11)
Procedure: as §1
More specifically, uptake of SYTOX Green by Cutibacterium (Propionibacterium) acnes cells treated with retinoids CD437 and Analog 2 increased, indicating higher permeability (FIG. 12; individual data points (n=3 biologically independent samples) and means are shown).

[6] = in words; cited from earlier work
[7] = tested on: Cutibacterium (Propionibacterium) acnes; assay: Morphology of treated P. acnes bacteria; assay type: cell-based; conditions: in words (FIG. 13)
[8] = Maximum tolerated dose; assay type: in vivo; conditions: mice, every 12 h for 3 days; Analog 2 10-80 mg/kg i.p., vancomycin 25 mg/kg i.p.; P>0.7
Procedure: Maximum tolerated dose. Six-week-old female CD1 ICR outbred mice (20-25 g) were obtained from Charles River Laboratories (Wilmington, MA, USA). Analog 2 was dissolved in a 1:1 solution of Kolliphor EL (Sigma-Aldrich, St Louis, MO, USA) and ethanol and then diluted 1:10 in saline to a final concentration of 4 mg/ml. Groups of mice (n=6) were treated with 10, 20, 40, 80 mg/kg Analog 2 i.p. or vancomycin (25 mg/kg) every 12 h for 3 days. Control mice were injected with 400 μl of 10% Kolliphor EL/ethanol in saline i.p. every 12 h for 3 days. Mice were closely monitored until they were euthanized at 72 h from the first infection. After euthanizing mice, blood was collected by cardiac puncture. All samples were stored at 4° C. until for analysis. Serum was analyzed for alanine aminotransferase and urea nitrogen content with commercially available kits, following the manufacturer's protocol (Pointe Scientific, Canton, MI, USA). No statistical methods were used to predetermine samples size. The experiments were not randomized, and investigators were not blinded to allocation during experiments and outcome assessment. This study and all experimental protocols were approved by the Rhode Island Hospital Institutional Animal Care and Use Committee (RIH IACUC) and conducted in accordance with the Animal Welfare Act and National Institutes of Health guidelines for animal care and use. Statistical significance among each group was analyzed by one-way ANOVA with post-hoc Tukey test using PASW Statistics 18 (SPSS Inc. Chicago, IL, USA) and GraphPad Prism 7 (GraphPad Software, La Jolla, CA, USA).

[9] = Staphylococcus aureus, read-out: MIC

SMILES: O=C(O)c1cc(O)c2cc(-c3cc(C45CC6CC(CC(C6)C4)C5)ccc3O)ccc2c1 [Analog 13, 6-(5-(adamantan-1-yl)-2-hydroxyphenyl)-4-hydroxy-2-naphthoic acid]
- fold increase in antimicrobial activity vs. Analog 10 ([1]; MRSA MW2, relative to Analog 10): 8 fold
- MIC [1, 9]: 4 µg/mL (≈ 9.65 µM)

SMILES: O=C(O)c1cc(O)c2cc(-c3ccc(O)c(C45CC6CC(CC(C6)C4)C5)c3)cc(O)c2c1 [Analog 14, 6-(3-(adamantan-1-yl)-4-hydroxyphenyl)-4,8-dihydroxy-2-naphthoic acid]
- fold decrease in antimicrobial activity vs. Analog 11 ([1]; MRSA MW2, another decrease relative to Analog 11): 4 fold
- MIC [1, 9]: 16 µg/mL (≈ 37.2 µM)

SMILES: O=C(O)c1ccc2cc(-c3ccc(O)c(Cc4ccccc4)c3)ccc2c1 [Analog 9, 6-(3-benzyl-4-hydroxyphenyl)-2-naphthoic acid]
- fold decrease in antimicrobial activity (fold higher MIC) vs. parent compound CD437 ([1]; MRSA MW2): 2 fold
- MIC [1, 9]: 2 µg/mL (≈ 5.64 µM)
- MIC [2]: 16 µg/mL (≈ 45.1 µM)
- hemolytic activity [3]: similar
- hepatotoxicity [4]: similar

SMILES: O=C(O)c1cc(O)c2cc(-c3cc(C45CC6CC(CC(C6)C4)C5)ccc3O)cc(O)c2c1 [Analog 16, 6-(5-(adamantan-1-yl)-2-hydroxyphenyl)-4,8-dihydroxy-2-naphthoic acid]
- MIC [1, 9]: 8 µg/mL (≈ 18.6 µM)

SMILES: O=C(O)c1cc(O)c2cc(-c3ccc(O)c(C45CC6CC(CC(C6)C4)C5)c3)ccc2c1 [Analog 11, 6-(3-(adamantan-1-yl)-4-hydroxyphenyl)-4-hydroxy-2-naphthoic acid]
- fold decrease in antimicrobial activity (fold higher MIC) vs. parent compound CD437 ([1]; MRSA MW2): 4 fold
- MIC [1, 9]: 4 µg/mL (≈ 9.65 µM)

SMILES: O=C(O)c1ccc2cc(-c3cc(C45CC6CC(CC(C6)C4)C5)ccc3O)ccc2c1 [Analog 10, 6-(5-(adamantan-1-yl)-2-hydroxyphenyl)-2-naphthoic acid]
- fold decrease in antimicrobial activity (fold higher MIC) vs. parent compound CD437 ([1]; MRSA MW2): > 30 fold
- MIC [1, 9]: 32 µg/mL (≈ 80.3 µM)

SMILES: NC(=O)c1ccc2cc(-c3ccc(O)c(C45CC6CC(CC(C6)C4)C5)c3)ccc2c1 [Analog 3, 6-(3-(adamantan-1-yl)-4-hydroxyphenyl)-2-naphthamide]
- antimicrobial activity [1]: comparatively low

SMILES: COc1ccc(-c2ccc3cc(CO)ccc3c2)cc1C12CC3CC(CC(C3)C1)C2 [Analog 6, (6-(3-(adamantan-1-yl)-4-methoxyphenyl)naphthalen-2-yl)methanol]
- antimicrobial activity [1]: eliminated

SMILES: COc1ccc(-c2ccc3cc(C(=O)O)ccc3c2)cc1C12CC3CC(CC(C3)C1)C2 [adapalene]
- growth inhibition [5]: not

SMILES: O=C(O)/C=C/c1ccc(-c2ccc(O)c(C34CC5CC(CC(C5)C3)C4)c2)cc1 [adarotene]
- excretion [6]: excreted rapidly

SMILES: O=C(O)c1ccc2cc(-c3ccc(O)c(C45CC6CC(CC(C6)C4)C5)c3)ccc2c1 [CD437, reference compound]
- MIC [1]: 1 µg/mL (≈ 2.51 µM)
- growth inhibition [5]: inhibit the growth
- morphology of bacteria [7]: altered and elongated

SMILES: CN[C@H](CC(C)C)C(=O)N[C@H]1C(=O)N[C@@H](CC(N)=O)C(=O)N[C@H]2C(=O)N[C@H]3C(=O)N[C@H](C(=O)N[C@H](C(=O)O)c4cc(O)cc(O)c4-c4cc3ccc4O)[C@H](O)c3ccc(c(Cl)c3)Oc3cc2cc(c3O[C@@H]2O[C@H](CO)[C@@H](O)[C@H](O)[C@H]2O[C@H]2C[C@](C)(N)[C@H](O)[C@H](C)O2)Oc2ccc(cc2Cl)[C@H]1O [vancomycin, reference compound]
- alanine aminotransferase (ALT) vs. control [8]: lack of significant differences
- blood urea nitrogen (BUN) vs. control [8]: lack of significant differences
